Laboratory results as given in US20190100534A1, “Cephem Compounds with Latent Reactive Groups” (Gladius Pharmaceuticals, Inc., priority 2017, published 2019).

Experiments:
KP(ATCC SHV-18) = experiment: MIC determination; type: cell-based, Klebsiella pneumoniae; details: CAMH broth, 20 μM Apo-Transferrin, 37° C., 18 hours
Procedure, shortened: (§1)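 Growth inhibition was judged by well clarity after 18 h at 37 °C in transferrin-supplemented (20 μM apo form) CAMH. Standardized suspensions (0.08-0.1 OD600) were added within 30 min of preparation.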

KP(JMI KPC-2) = experiment: MIC determination; type: cell-based, Klebsiella pneumoniae; details: CAMH broth, 20 μM Apo-Transferrin, 37° C., 18 hours
Procedure, shortened: as §1

KP(GJ 5934 TEM-26) = experiment: MIC determination; type: cell-based, Klebsiella pneumoniae; details: CAMH broth, 20 μM Apo-Transferrin, 37° C., 18 hours
Procedure, shortened: as §1

ENA (URMC-1) = experiment: MIC determination; type: cell-based, Enterobacter aerogenes; details: Klebsiella aerogenes, CAMH broth, 20 μM Apo-Transferrin, 37° C., 18 hours, read-out: Minimum Inhibitory Concentrations, ENA (URMC-1)
Method: (§2) Sterile technique was used throughout these experiments. Suspensions of organisms were removed from storage (−80° C.) and partially thawed. Partially thawed organisms (1 μL) were inoculated into 3 mL sterile LB Broth in a sterile culture tube and capped, then cultured at 37° C. with shaking for 4-5 hours until the optical density at 600 nm (OD600) was greater than 0.1 on a single beam spectrophotometer.
(§3) The concentration of organisms was adjusted to 0.08-0.1 OD600 (0.5 McFarland units) by dilution with sterile cation-adjusted Meuller-Hinton (CAMH) broth. The suspensions were used within 30 minutes of preparation.
(§4) A stock solution was made of each test compound by measuring 6.4 mg of the compound on an analytical balance and dissolving it in DMSO (1 mL) to get a transparent solution. The solutions were stored at −20° C. and thawed prior to use.
(§5) Sterile CAMH broth (200 μL) containing 20 μM Apo-Transferrin was pipetted into the first row of 8 columns of a sterile, round-bottomed, transparent, 96-well microplate using an 8-channel pipette equipped with sterile tips. One hundred μL was pipetted into the wells of the remaining 11 rows.
(§6) With an 8-channel pipette equipped with sterile tips, 100 μL of the first row solution was transferred to the second row and mixed. The process was repeated for the second to third rows and continued through row 11. One hundred μL from row 11 was removed and discarded so that all 12 rows contained 100 μL. Row 12 contained no compound and rows 1-11 contained 64, 32, 16, 8, 4, 2, 1, 0.5, 0.25, 0.125, […] of a given compound.
(§7) Inoculant suspensions (0.5 μL) were added to the 12 wells of each column. The plates were then covered and incubated at 37° C. overnight for 18 hours.
(§8) For each organism the MIC was determined by identifying the transparent well with the lowest test compound concentration.

ENA (URMC-2) = experiment: MIC determination; type: cell-based, Enterobacter aerogenes; details: Klebsiella aerogenes, CAMH broth, 20 μM Apo-Transferrin, 37° C., 18 hours, read-out: Minimum Inhibitory Concentrations, ENA (URMC-2)
Method: as §2, §3, §4, §5, §6, §7, §8

EC(KB1 CTX-M-14) = experiment: MIC determination; type: cell-based, Escherichia coli; details: Escherichia coli, 18 h, read-out: Minimum Inhibitory Concentrations, EC(KB1 CTX-M-14)
Procedure, shortened: as §1

EC(KB2 CTX-M-14) = experiment: MIC determination; type: cell-based, Escherichia coli; details: Escherichia coli, 18 h, read-out: Minimum Inhibitory Concentrations, EC(KB2 CTX-M-14)
Procedure, shortened: as §1

KP(ATCC TEM-10/TEM-12) = type: cell-based, Klebsiella pneumoniae; details: CAMH broth, 20 μM Apo-Transferrin, 37° C., 18 hours
Method: as §2, §3, §4, §5, §6, §7, §8

[1] = test system: ENC (Enterobacter cloacae); experiment: MIC determination; type: cell-based; details: CAMH broth, 20 μM Apo-Transferrin, 37° C., 18 hours
Procedure, shortened: as §1

PM (Proteus mirabilis) = experiment: MIC determination; type: cell-based; details: Proteus mirabilis, CAMH broth, 20 μM Apo-Transferrin, 37° C., 18 hours, read-out: Minimum Inhibitory Concentrations, PM
Procedure, shortened: as §1

SM (Serratia marcescens) = experiment: MIC determination; type: cell-based; details: Serratia marcescens, CAMH broth, 20 μM Apo-Transferrin, 37° C., 18 hours, read-out: Minimum Inhibitory Concentrations, SM
Procedure, shortened: as §1

[2] = test system: CF (Citrobacter freundii); experiment: MIC determination; type: cell-based; details: Citrobacter freundii, CAMH broth, 20 μM Apo-Transferrin, 37° C., 18 hours, read-out: Minimum Inhibitory Concentrations, CF
Procedure, shortened: as §1

[3] = test system: KOXY (Klebsiella oxytoca); experiment: MIC determination; type: cell-based; details: Klebsiella oxytoca, CAMH broth, 20 μM Apo-Transferrin, 37° C., 18 hours, read-out: Minimum Inhibitory Concentrations, KOXY
Procedure, shortened: as §1

[4] = test system: KP (Klebsiella pneumoniae); experiment: MIC determination; type: cell-based; details: 20 μM Apo-Transferrin, 37° C., 18 hours
Procedure, shortened: as §1

[5] = test system: various Pseudomonas strains; experiment: MIC determination, summary in text; type: cell-based, Pseudomonas aeruginosa; details: review of Tables 1-1 and 1-2
Method: as §2, §3, §4, §5, §6, §7, §8

EC (Escherichia coli) = experiment: MIC determination; type: cell-based; details: 20 μM Apo-Transferrin, 37° C., 18 hours; for MIC: Escherichia coli, first EC column of Table 3-1, CAMH broth, read-out: Minimum Inhibitory Concentrations, EC; for Minimum Inhibitory Concentrations, EC: Table 3-1, CAMH broth
Procedure, shortened: as §1

various enteric bacteria = experiment: MIC determination, summary in text; type: cell-based; details: review of Tables 3-1 to 3-6
Method: as §2, §3, §4, §5
To each well of the first row was pipetted 2.0 μL of the 6.4 mg/mL stock test compound stock solution to give 1:100 dilutions and a final concentration of 64 μg/mL and mixed.
as §6, §7, §8

[6] = first KP column of Table 3-1, CAMH broth
[7] = second KP column of Table 3-1, CAMH broth

| SMILES | Minimum Inhibitory Concentrations, KP(ATCC SHV-18) (KP(ATCC SHV-18)) [microgram/mL] | Minimum Inhibitory Concentrations, KP(JMI KPC-2) (KP(JMI KPC-2)) [microgram/mL] | Minimum Inhibitory Concentrations, KP(GJ 5934 TEM-26) (KP(GJ 5934 TEM-26)) [microgram/mL] | MIC (ENA (URMC-1)) [mg/L] | MIC (ENA (URMC-2)) [mg/L] | MIC (EC(KB1 CTX-M-14)) [mg/L] | MIC (EC(KB2 CTX-M-14)) [mg/L] | Minimum Inhibitory Concentrations, KP(ATCC TEM-10/TEM-12) (KP(ATCC TEM-10/TEM-12)) [microgram/mL] | Mimimum Inhibitory Concentrations, ENC [1] [microgram/mL] | MIC (PM (Proteus mirabilis)) [mg/L] | MIC (SM (Serratia marcescens)) [mg/L] | MIC [2] [mg/L] | MIC [3] [mg/L] | Minimum Inhibitory Concentrations, KP [4, 6] [microgram/mL] | Minimum Inhibitory Concentrations, KP [4, 7] [microgram/mL] | MICs for various Pseudomonas strains, in words [5] | MIC (EC (Escherichia coli)) [mg/L] | Minimum Inhibitory Concentrations, EC (EC (Escherichia coli)) [microgram/mL] | MICs for various enteric bacteria, in words (various enteric bacteria) |
| --- | --- | --- | --- | --- | --- | --- | --- | --- | --- | --- | --- | --- | --- | --- | --- | --- | --- | --- | --- |
| CC(C)(O/N=C(\C(=O)N[C@@H]1C(=O)N2C(C(=O)O)=C(C=Cc3ccc(C[n+]4ccc(-c5ccc(O)c(O)c5)cc4)cc3)CS[C@H]12)c1csc(N)n1)C(=O)O (mixture of isomers) [Compound 412, 1-(4-((E/Z)-2-((6R,7R)-7-((Z)-2-(2-aminothiazol-4-yl)-2-(((2-carboxypropan-2-yl)oxy)imino)acetamido)-2-carboxy-8-oxo-5-thia-1-azabicyclo[4.2.0]oct-2-en-3-yl)vinyl)benzyl)-4-(3,4-dihydroxyphenyl)pyridin-1-ium] | 1 | 64 | 0.5 | 0.25 | 0.13 | 0.5 | 1 | 32 | 4 | ≤ 0.06 | 0.5 | ≤ 0.06 | 0.5 | 2 | 2 |  |  |  |  |
| CC(C)(O/N=C(\C(=O)N[C@@H]1C(=O)N2C(C(=O)O)=C(C=Cc3ccc(C[N+]4(C)CCc5c(Cl)c(O)c(O)c(Cl)c5C4)cc3)CS[C@H]12)c1csc(N)n1)C(=O)O (mixture of isomers) [Compound 429, 2-(4-((E/Z)-2-((6R,7R)-7-((Z)-2-(2-aminothiazol-4-yl)-2-(((2-carboxypropan-2-yl)oxy)imino)acetamido)-2-carboxy-8-oxo-5-thia-1-azabicyclo[4.2.0]oct-2-en-3-yl)vinyl)benzyl)-5,8 dichloro-6,7-dihydroxy-2-methyl-1,2,3,4-tetrahydroisoquinolin-2-ium] |  | 16 | 0.5 | 2 | 1 |  | 1 | 4 |  |  |  |  | 0.5 | 1 | 1 |  |  |  |  |
| CC(C)(O/N=C(\C(=O)N[C@@H]1C(=O)N2C(C(=O)O)=C(C=Cc3ccc(C[N+]4(C)Cc5c(Cl)c(O)c(O)c(Cl)c5C4)cc3)CS[C@H]12)c1csc(N)n1)C(=O)O (mixture of isomers) [Compound 431, 2-(4-((E/Z)-2-((6R,7R)-7-((Z)-2-(2-aminothiazol-4-yl)-2-(((2-carboxypropan-2-yl)oxy)imino)acetamido)-2-carboxy-8-oxo-5-thia-1-azabicyclo[4.2.0]oct-2-en-3-yl)vinyl)benzyl)-4,7-dichloro-5,6-dihydroxy-2-methylisoindolin-2-ium] |  | 8 | 0.5 | 0.5 | 0.5 |  |  | 16 |  |  |  |  | 0.13 | 0.13 | 0.13 | low microgram/mL MICs | 0.5 | 0.5 | low microgram/mL MICs |
| CC(C)(O/N=C(\C(=O)N[C@@H]1C(=O)N2C(C(=O)O)=C(C=Cc3ccc(C[N+]4(C)Cc5cc(O)c(O)c(Cl)c5C4)cc3)CS[C@H]12)c1csc(N)n1)C(=O)O (mixture of isomers) [Compound 432, 2-(4-((E/Z)-2-((6R,7R)-7-((Z)-2-(2-aminothiazol-4-yl)-2-(((2-carboxypropan-2-yl)oxy)imino)acetamido)-2-carboxy-8-oxo-5-thia-1-azabicyclo[4.2.0]oct-2-en-3-yl)vinyl)benzyl)-4-chloro-5,6-dihydroxy-2-methylisoindolin-2-ium] |  | 64 | 0.13 | 1 | 0.25 |  |  | 8 |  |  |  |  | 0.5 | 1 | 1 |  | 0.25 | 0.25 | low microgram/mL MICs |
| CC(C)(O/N=C(\C(=O)N[C@@H]1C(=O)N2C(C(=O)O)=C(C=Cc3ccc(C[N+]4(C)CCc5ccc(O)c(O)c5C4)cc3)CS[C@H]12)c1csc(N)n1)C(=O)O (mixture of isomers) [Compound 442, 2-(4-((E/Z)-2-((6R,7R)-7-((Z)-2-(2-aminothiazol-4-yl)-2-(((2-carboxypropan-2-yl)oxy)imino)acetamido)-2-carboxy-8-oxo-5-thia-1-azabicyclo[4.2.0]oct-2-en-3 yl)vinyl)benzyl)-7,8-dihydroxy-2-methyl-1,2,3,4-tetrahydroisoquinolin-2-ium] | 0.5 | 64 | 0.5 | 0.5 | 1 | 1 |  | 4 | 8 |  |  |  |  |  |  |  | 0.25 | 0.25 |  |
| C#CC[N+]1(Cc2ccc(C=CC3=C(C(=O)O)N4C(=O)[C@@H](NC(=O)/C(=N\OC(C)(C)C(=O)O)c5csc(N)n5)[C@H]4SC3)cc2)CCc2cc(O)c(O)cc2C1 (mixture of isomers) [Compound 446, 2-(4-((E/Z)-2-((6R,7R)-7-((Z)-2-(2-aminothiazol-4-yl)-2-(((2-carboxypropan-2-yl)oxy)imino)acetamido)-2-carboxy-8-oxo-5-thia-1-azabicyclo[4.2.0]oct-2-en-3-yl)vinyl)benzyl)-6,7-dihydroxy-2-(prop-2-yn-1-yl)-1,2,3,4-tetrahydroisoquinolin-2-ium] | 1 | 32 | 0.5 |  |  | 2 | 8 | 16 | 4 |  |  |  |  |  |  |  | 0.5 | 0.5 |  |
